Test results: US9650395B2, “Antibacterial compounds and methods for use” (PTC Therapeutics, Inc., priority 2011, dated 2017)
Converted amounts (≈) assume the structure as drawn. Where a name gives a salt, the structure may show the parent alone. Read-outs that look alike come from different tables or passages of the source.

Columns and labels:
[1] = test system: quinolone resistant E. coli LZ3111; experiment: Antibacterial activity, MIC, quinolone resistant E. coli LZ3111; assay type: cell-based, Escherichia coli; conditions: Escherichia coli, read-out: MIC, LZ3111
Description: The antibacterial activity from a microbroth dilution method may be presented as the minimum inhibitory concentration (MIC in […]). The MIC value is the lowest concentration of a drug which prevents macroscopically visible bacterial growth under test conditions.
Mutations in these regions are known to confer a high level resistance to the quinolone class of antibiotics.

[2] = test system: control Gram-negative E. coli 25922 strain; experiment: Antibacterial activity, microbroth dilution MIC, E. coli 25922; assay type: cell-based, Escherichia coli; conditions: Escherichia coli, read-out: MIC, 25922
[3] = test system: Gram-positive Staphylococcus aureus (S. aureus) 29213; experiment: Antibacterial activity, microbroth dilution MIC, S. aureus 29213; assay type: cell-based; conditions: Staphylococcus aureus, read-out: MIC, 29213
[4] = test system: super sensitive Gram-negative Escherichia coli (E. coli) BAS849; experiment: Antibacterial activity, microbroth dilution MIC, E. coli BAS849; assay type: cell-based; conditions: Escherichia coli, read-out: MIC, BAS849
[5] = E. coli 25922, microbroth dilution
[6] = S. aureus 29213, microbroth dilution
[7] = E. coli BAS849, microbroth dilution

Structure (SMILES)	MIC [1]	MIC [2, 5]	MIC [3, 6]	MIC [4]	MIC [4, 7]	MIC [2]	MIC [3]
CCc1cc(C(=O)O)c(=O)[nH]c1-c1ccc(N2C[C@H]3CCC[C@@H](NC)[C@H]3C2)cc1 [Cpd 195, 5-ethyl-6-{4-[(3aR,4R,7aS)-4-(methylamino)octahydro-2H-isoiridol-2-yl]phenyl}-2-oxo-1,2-dihydropyridine-3-carboxylic acid trifluoroacetate]	12.5 to 150 µg/mL	3.5 to 12.5 µg/mL	12.5 to 150 µg/mL	1 to 3.5 µg/mL			
CCc1cc(C(=O)O)c(=O)[nH]c1-c1ccc(N2C[C@H]3CCC[C@@H](N(Cc4ccccc4)Cc4ccccc4)[C@H]3C2)cc1.O=C(O)C(F)(F)F [Cpd 196, 6-{4-[(3aR,4R,7aS)-4-(dibenzylamino)octahydro-2H-isoindol-2-yl]phenyl}-5-ethyl-2-oxo-1,2-dihydropyridine-3-carboxylic acid trifluoroacetate]	12.5 to 150 µg/mL	12.5 to 150 µg/mL	12.5 to 150 µg/mL	12.5 to 150 µg/mL			
CCc1cc(C(=O)O)c(=O)[nH]c1-c1ccc(N2C[C@H]3CCC[C@@H](N)[C@H]3C2)cc1.O=C(O)C(F)(F)F [Cpd 197, 6-{4-[(3aR,4R,7aS)-4-aminooctahydro-2H-isoindol-2-yl]phenyl}-5-ethyl-2-oxo-1,2-dihydropyridine-3-carboxylic acid trifluoroacetate]	12.5 to 150 µg/mL	12.5 to 150 µg/mL	12.5 to 150 µg/mL	3.5 to 12.5 µg/mL			
CCc1cc(C(=O)O)c(=O)[nH]c1-c1ccc(N2C[C@H]3CC[C@@H](N(C)C)[C@H]3C2)cc1.Cl [Cpd 198, 6-{4-[(3aR,4R,6aS)-4-(dimethylamino)hexahydrocyclopenta[c]pyrrol-2(1H)-yl]phenyl}-5-ethyl-2-oxo-1,2-dihydropyridine-3-carboxylic acid hydrochloride]	12.5 to 150 µg/mL	3.5 to 12.5 µg/mL	12.5 to 150 µg/mL		< 1 µg/mL		
CCc1cc(C(=O)O)c(=O)[nH]c1-c1ccc(N2C[C@H]3CC[C@@H](N(C)Cc4ccccc4)[C@H]3C2)cc1.Cl [Cpd 199, 6-{4-[(3aR,4R,6aS)-4-[benzyl(methyl)amino]hexahydrocyclopenta[c]pyrrol-2(1H)-yl]phenyl}-5-ethyl-2-oxo-1,2-dihydropyridine-3-carboxylic acid hydrochloride]	12.5 to 150 µg/mL	3.5 to 12.5 µg/mL	3.5 to 12.5 µg/mL		< 1 µg/mL		
CCc1cc(C(=O)O)c(=O)[nH]c1-c1ccc(N2C[C@H]3CC[C@@H](NC)[C@H]3C2)cc1.Cl [Cpd 200, 5-ethyl-6-{4-[(3aR,4R,6aS)-4-(methylamino)hexahydrocyclopenta[c]pyrrol-2(1H)-yl]phenyl}-2-oxo-1,2-dihydropyridine-3-carboxylic acid hydrochloride]	12.5 to 150 µg/mL	3.5 to 12.5 µg/mL	12.5 to 150 µg/mL		1 to 3.5 µg/mL		
CCc1cc(C(=O)O)c(=O)[nH]c1-c1ccc(N2C[C@H]3CC[C@@H](N(Cc4ccccc4)Cc4ccccc4)[C@H]3C2)cc1.O=C(O)C(F)(F)F [Cpd 201, 6-{4-[(3aR,4R,6aS)-4-(dibenzylamino)hexahydrocyclopenta[c]pyrrol-2(1H)-yl]phenyl}-5-ethyl-2-oxo-1,2-dihydropyridine-3-carboxylic acid trifluoroacetate]	12.5 to 150 µg/mL	12.5 to 150 µg/mL	12.5 to 150 µg/mL	3.5 to 12.5 µg/mL			
CCc1cc(C(=O)O)c(=O)[nH]c1-c1ccc(N2C[C@H]3CC[C@H](N)[C@H]3C2)cc1.O=C(O)C(F)(F)F [Cpd 204, 6-{4-[(3aR,4S,6aS)-4-aminohexahydrocyclopenta[c]pyrrol-2(1H)-yl]phenyl}-5-ethyl-2-oxo-1,2-dihydropyridine-3-carboxylic acid trifluoroacetate]	12.5 to 150 µg/mL	12.5 to 150 µg/mL	12.5 to 150 µg/mL	1 to 3.5 µg/mL			
CCc1cc(C(=O)O)c(=O)[nH]c1-c1ccc(N2C[C@H]3CCCC[C@@]3(CN(C)C)C2)cc1.O=C(O)C(F)(F)F [Cpd 205, 6-(4-{(3aR,7aS)-3a-[(dimethylamino)methyl]octahydro-2H-isoindol-2-yl}phenyl)-5-ethyl-2-oxo-1,2-dihydropyridine-3-carboxylic acid trifluoroacetate]	12.5 to 150 µg/mL	12.5 to 150 µg/mL	12.5 to 150 µg/mL	1 to 3.5 µg/mL			
CCc1cc(C(=O)O)c(=O)[nH]c1-c1ccc(N2C[C@H]3CNC[C@H]3C2)cc1.Cl [Cpd 207, 5-ethyl-6-{4-[(3aR,6aS)-hexahydropyrrolo[3,4-c]pyrrol-2(1H)-yl]phenyl}-2-oxo-1,2-dihydropyridine-3-carboxylic acid hydrochloride]	12.5 to 150 µg/mL	12.5 to 150 µg/mL	12.5 to 150 µg/mL		3.5 to 12.5 µg/mL		
CCc1cc(C(=O)O)c(=O)[nH]c1-c1ccc(N2CC3NC3C2)cc1 (centres unmarked) [Cpd 209, 6-[4-(3,6-diazabicyclo[3.1.0]hex-3-yl)phenyl]-5-ethyl-2-oxo-1,2-dihydropyridine-3-carboxylic acid]	12.5 to 150 µg/mL (≈ 38.4 to 461 µM)				3.5 to 12.5 µg/mL (≈ 10.8 to 38.4 µM)	12.5 to 150 µg/mL (≈ 38.4 to 461 µM)	12.5 to 150 µg/mL (≈ 38.4 to 461 µM)
CCc1cc(C(=O)O)c(=O)[nH]c1-c1ccc(N2C[C@H]3C[C@@H](NC)[C@H]3C2)cc1.Cl [Cpd 210, 5-ethyl-6-{4-[(1S,5R,6R)-6-(methylamino)-3-azabicyclo[3.2.0]hept-3-yl]phenyl}-2-oxo-1,2-dihydropyridine-3-carboxylic acid hydrochloride]	12.5 to 150 µg/mL	12.5 to 150 µg/mL	12.5 to 150 µg/mL		1 to 3.5 µg/mL		
CCc1cc(C(=O)O)c(=O)[nH]c1-c1ccc(N2C[C@H]3C[C@@H](N)[C@H]3C2)cc1 [Cpd 211, 6-{4-[(1S,5R,6R)-6-amino-3-azabicyclo[3.2.0]hept-3-yl]phenyl}-5-ethyl-2-oxo-1,2-dihydropyridine-3-carboxylic acid]	12.5 to 150 µg/mL (≈ 35.4 to 424 µM)	3.5 to 12.5 µg/mL (≈ 9.9 to 35.4 µM)	12.5 to 150 µg/mL (≈ 35.4 to 424 µM)		< 1 µg/mL		
CCc1cc(C(=O)O)c(=O)[nH]c1-c1ccc(N2C[C@H]3C[C@H](N)[C@H]3C2)cc1.Cl [Cpd 212, 6-{4-[(1S,5R,6S)-6-amino-3-azabicyclo[3.2.0]hept-3-yl]phenyl}-5-ethyl-2-oxo-1,2-dihydropyridine-3-carboxylic acid hydrochloride]	12.5 to 150 µg/mL	3.5 to 12.5 µg/mL	12.5 to 150 µg/mL		< 1 µg/mL		
CCc1cc(C(=O)O)c(=O)[nH]c1-c1ccc(N2CC3CCCNC3C2)cc1.Cl (centres unmarked) [Cpd 213, 5-ethyl-6-[4-(octahydro-6H-pyrrolo[3,4-b]pyridin-6-yl)phenyl]-2-oxo-1,2-dihydropyridine-3-carboxylic acid hydrochloride]	12.5 to 150 µg/mL	12.5 to 150 µg/mL	12.5 to 150 µg/mL		1 to 3.5 µg/mL		
CCc1cc(C(=O)O)c(=O)[nH]c1-c1ccc(N2CC(N)C3(CC3)C2)cc1.O=C(O)C(F)(F)F (centres unmarked) [Cpd 214, 6-[4-(7-amino-5-azaspiro[2.4]hept-5-yl)phenyl]-5-ethyl-2-oxo-1,2-dihydropyridine-3-carboxylic acid trifluoroacetate]	12.5 to 150 µg/mL	12.5 to 150 µg/mL	12.5 to 150 µg/mL	1 to 3.5 µg/mL			
CCc1cc(C(=O)O)c(=O)[nH]c1-c1ccc(N2C[C@H]3C[C@@H](NC)C[C@H]3C2)cc1 [Cpd 215, 5-ethyl-6-{4-[(3aR,5r,6aS)-5-(methylamino)hexahydrocyclopenta[c]pyrrol-2(1H)-yl]phenyl}-2-oxo-1,2-dihydropyridine-3-carboxylic acid trifluoroacetate]	12.5 to 150 µg/mL	3.5 to 12.5 µg/mL	12.5 to 150 µg/mL	1 to 3.5 µg/mL			
